Measurements from patent publication US11731968B2, “Tricyclic protein kinase inhibitors for promoting liver regeneration or reducing or preventing hepatocyte death” (HEPAREGENIX GMBH, priority 2018, dated 2023).

Legend:
MKK4 = target: T1, MKK4 (Homo sapiens, UniProt P45985); test: KINOMEscan competition binding assay, MKK4 potency; conditions: compound concentration 100 nM; lower numbers indicate stronger binding
T1 construct: S84/D399; host or cells: HEK-293
T1 sequence (P45985 84-399): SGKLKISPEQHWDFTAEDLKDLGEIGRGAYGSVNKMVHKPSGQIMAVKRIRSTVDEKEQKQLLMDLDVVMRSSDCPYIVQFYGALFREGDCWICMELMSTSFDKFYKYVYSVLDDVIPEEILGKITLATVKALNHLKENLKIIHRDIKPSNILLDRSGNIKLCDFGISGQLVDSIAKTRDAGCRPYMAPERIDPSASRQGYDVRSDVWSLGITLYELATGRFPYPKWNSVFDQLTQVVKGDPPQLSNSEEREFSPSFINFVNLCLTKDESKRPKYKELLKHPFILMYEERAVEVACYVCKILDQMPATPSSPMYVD
Protocol: (§1) The assay was performed by combining three components: DNA-tagged kinase; immobilized ligand; and a test compound. The ability of the test compound to compete with the immobilized ligand was measured via quantitative PCR of the DNA tag. The technology is described in detail in Fabian, M. A. et al., A small molecule-kinase interaction map for clinical kinase inhibitors. Nat.
(§2) For investigation of the affinity to MKK4, MKK7 and JNK1, the kinases were produced in HEK-293 cells and subsequently tagged with DNA for qPCR detection. […] The liganded beads were blocked with excess biotin and washed with blocking buffer (SEABLOCK™ (Pierce), 1% BSA, 0.05% TWEEN®20, 1 mM DTT) to remove unbound ligand and to reduce nonspecific binding. […] All reactions were performed in polystyrene 96-well plates in a final volume of 0.135 mL. […] The kinase concentration in the eluates was measured by qPCR.
(§3) The test compounds were provided as 10 mM stock solutions. The test solutions at indicated final concentrations were prepared at DiscoverX.

MKK7 = target: T2, MKK7 (Homo sapiens, UniProt O14733); test: KINOMEscan competition binding, selectivity against off-target MKK7 (PoC ratio MKK7/MKK4); conditions: compound concentration 100 nM
T2 construct: M1/R419; host or cells: HEK-293
T2 sequence (O14733 1-419): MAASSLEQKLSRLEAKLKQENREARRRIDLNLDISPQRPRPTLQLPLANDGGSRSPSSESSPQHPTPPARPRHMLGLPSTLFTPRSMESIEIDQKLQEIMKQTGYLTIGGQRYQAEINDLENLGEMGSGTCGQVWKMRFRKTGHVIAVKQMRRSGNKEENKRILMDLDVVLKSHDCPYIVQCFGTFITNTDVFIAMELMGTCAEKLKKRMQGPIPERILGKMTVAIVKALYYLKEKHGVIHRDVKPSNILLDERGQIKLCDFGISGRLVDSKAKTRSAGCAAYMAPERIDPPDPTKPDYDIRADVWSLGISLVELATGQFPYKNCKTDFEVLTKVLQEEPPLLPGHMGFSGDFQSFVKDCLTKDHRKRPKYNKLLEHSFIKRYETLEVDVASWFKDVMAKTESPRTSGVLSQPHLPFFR
Protocol: as §1, §2, §3

BRaf = BRaf (Homo sapiens, UniProt P15056); test: KINOMEscan competition binding, selectivity against off-target BRaf (PoC ratio BRaf/MKK4); conditions: compound concentration 100 nM
Protocol: as §1, §3

JNK1 = target: T3, JNK1 (Homo sapiens, UniProt P45983); test: KINOMEscan competition binding, selectivity against off-target JNK1 (PoC ratio JNK1/MKK4); conditions: compound concentration 100 nM
T3 construct: M1/Q384; host or cells: HEK-293
Protocol: as §1, §2, §3

Sequence of BRaf (P15056 whole entry): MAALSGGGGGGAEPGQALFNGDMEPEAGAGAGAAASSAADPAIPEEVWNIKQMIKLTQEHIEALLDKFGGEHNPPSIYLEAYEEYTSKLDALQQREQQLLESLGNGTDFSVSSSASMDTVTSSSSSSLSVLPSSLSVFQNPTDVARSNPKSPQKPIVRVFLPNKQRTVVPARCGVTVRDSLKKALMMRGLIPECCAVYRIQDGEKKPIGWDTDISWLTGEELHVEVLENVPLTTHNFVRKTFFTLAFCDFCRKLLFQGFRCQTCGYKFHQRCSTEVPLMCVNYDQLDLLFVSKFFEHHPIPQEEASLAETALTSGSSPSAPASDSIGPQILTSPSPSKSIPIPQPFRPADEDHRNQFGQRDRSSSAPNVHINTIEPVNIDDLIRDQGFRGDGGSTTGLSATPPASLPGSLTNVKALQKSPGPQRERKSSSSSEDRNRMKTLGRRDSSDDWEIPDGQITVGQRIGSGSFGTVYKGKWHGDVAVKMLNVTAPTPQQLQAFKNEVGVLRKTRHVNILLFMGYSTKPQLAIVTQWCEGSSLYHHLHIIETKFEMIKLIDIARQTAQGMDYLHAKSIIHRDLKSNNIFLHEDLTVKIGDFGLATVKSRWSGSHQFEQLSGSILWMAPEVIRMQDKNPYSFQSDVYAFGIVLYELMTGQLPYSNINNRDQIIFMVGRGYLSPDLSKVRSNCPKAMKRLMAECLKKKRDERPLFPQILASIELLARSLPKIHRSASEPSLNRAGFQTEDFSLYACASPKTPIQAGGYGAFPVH
T3 sequence (P45983 1-384 isoform P45983-2): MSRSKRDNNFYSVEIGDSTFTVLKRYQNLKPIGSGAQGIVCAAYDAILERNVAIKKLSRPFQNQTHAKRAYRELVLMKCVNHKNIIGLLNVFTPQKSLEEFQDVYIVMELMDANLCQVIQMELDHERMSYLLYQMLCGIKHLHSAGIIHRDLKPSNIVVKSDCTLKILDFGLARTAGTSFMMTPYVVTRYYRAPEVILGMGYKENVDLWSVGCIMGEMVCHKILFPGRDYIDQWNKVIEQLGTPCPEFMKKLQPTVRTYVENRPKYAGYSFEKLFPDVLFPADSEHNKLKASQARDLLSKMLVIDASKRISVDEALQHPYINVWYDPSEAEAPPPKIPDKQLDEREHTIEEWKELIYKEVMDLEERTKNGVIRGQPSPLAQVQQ

SMILES	MKK4 residual percent of control binding (PoC) (MKK4)	Selectivity vs. MKK7, ratio PoC(MKK7)/PoC(MKK4) (MKK7)	Selectivity vs. BRaf, ratio PoC(BRaf)/PoC(MKK4) (BRaf)	Selectivity vs. JNK1, ratio PoC(JNK1)/PoC(MKK4) (JNK1)
CCCS(=O)(=O)Nc1ccc(F)c(C(=O)c2ccc3[nH]c4ncc(-c5ccc(-c6nnn[nH]6)cc5)cc4c3c2)c1F [Example 4f]	+ +	+++ (PoC(MKK7)/PoC(MKK4) ≥ 30 = “+++”)	+++ (PoC(BRaf)/PoC(MKK4) ≥ 30 = “+++”)	+++ (PoC(JNK1)/PoC(MKK4) ≥ 30 = “+++”)
CS(=O)(=O)Nc1ccc(F)c(C(=O)c2ccc3[nH]c4ncc(-c5ccc(S(N)(=O)=O)cc5)cc4c3c2)c1F [Example 4j]	+ + +	+++ (PoC(MKK7)/PoC(MKK4) ≥ 30 = “+++”)	+++ (PoC(BRaf)/PoC(MKK4) ≥ 30 = “+++”)	+++ (PoC(JNK1)/PoC(MKK4) ≥ 30 = “+++”)
CCS(=O)(=O)Nc1ccc(F)c(C(=O)c2ccc3[nH]c4ncc(-c5ccc(S(N)(=O)=O)cc5)cc4c3c2)c1F [Example 4k]	+ + +	+++ (PoC(MKK7)/PoC(MKK4) ≥ 30 = “+++”)	+++ (PoC(BRaf)/PoC(MKK4) ≥ 30 = “+++”)	+++ (PoC(JNK1)/PoC(MKK4) ≥ 30 = “+++”)
CCCS(=O)(=O)Nc1ccc(F)c(C(=O)c2ccc3[nH]c4ncc(-c5ccc(OCC(O)CO)cc5)cc4c3c2)c1F (centres unmarked) [Example 4m]	+ + +	+++ (PoC(MKK7)/PoC(MKK4) ≥ 30 = “+++”)	+++ (PoC(BRaf)/PoC(MKK4) ≥ 30 = “+++”)	+++ (PoC(JNK1)/PoC(MKK4) ≥ 30 = “+++”)

Continued, values first:

MKK4 residual percent of control binding (PoC) (MKK4)	Selectivity vs. MKK7, ratio PoC(MKK7)/PoC(MKK4) (MKK7)	Selectivity vs. BRaf, ratio PoC(BRaf)/PoC(MKK4) (BRaf)	Selectivity vs. JNK1, ratio PoC(JNK1)/PoC(MKK4) (JNK1)	SMILES
+ + +	+++ (PoC(MKK7)/PoC(MKK4) ≥ 30 = “+++”)	+++ (PoC(BRaf)/PoC(MKK4) ≥ 30 = “+++”)	+++ (PoC(JNK1)/PoC(MKK4) ≥ 30 = “+++”)	CCCS(=O)(=O)Nc1ccc(F)c(C(=O)c2ccc3[nH]c4ncc(-c5ccncc5)cc4c3c2)c1F [Example 4a]
+ +	+++ (PoC(MKK7)/PoC(MKK4) ≥ 30 = “+++”)	+++ (PoC(BRaf)/PoC(MKK4) ≥ 30 = “+++”)	+++ (PoC(JNK1)/PoC(MKK4) ≥ 30 = “+++”)	CCCS(=O)(=O)Nc1ccc(F)c(C(=O)c2ccc3[nH]c4ncc(-c5ccc(S(N)(=O)=O)cc5)cc4c3c2)c1F [Example 4b]
+ + +	+++ (PoC(MKK7)/PoC(MKK4) ≥ 30 = “+++”)	+++ (PoC(BRaf)/PoC(MKK4) ≥ 30 = “+++”)	+++ (PoC(JNK1)/PoC(MKK4) ≥ 30 = “+++”)	CCCS(=O)(=O)Nc1ccc(F)c(C(=O)c2ccc3[nH]c4ncc(-c5ccc(C(N)=O)cc5)cc4c3c2)c1F [Example 4e]
+ + +	+++ (PoC(MKK7)/PoC(MKK4) ≥ 30 = “+++”)	+++ (PoC(BRaf)/PoC(MKK4) ≥ 30 = “+++”)	+++ (PoC(JNK1)/PoC(MKK4) ≥ 30 = “+++”)	CCCS(=O)(=O)Nc1ccc(F)c(C(=O)c2ccc3[nH]c4ncc(-c5ccc(C(=O)O)cc5)cc4c3c2)c1F [Example 4n]
+ + +	+++ (PoC(MKK7)/PoC(MKK4) ≥ 30 = “+++”)	+++ (PoC(BRaf)/PoC(MKK4) ≥ 30 = “+++”)	+++ (PoC(JNK1)/PoC(MKK4) ≥ 30 = “+++”)	CCCS(=O)(=O)Nc1ccc(F)c(C(=O)c2ccc3[nH]c4ncc(-c5ccc(N)nc5)cc4c3c2)c1F [Example 7, N-(3-(3-(6-aminopyridin-3-yl)-9H-pyrido[2,3-b]indole-6-carbonyl)-2,4-difluorophenyl)propane-1-sulfonamide]
+ (10 ≤ PoC < 30 = “+”)	+++ (PoC(MKK7)/PoC(MKK4) ≥ 30 = “+++”)	+++ (PoC(BRaf)/PoC(MKK4) ≥ 30 = “+++”)	+++ (PoC(JNK1)/PoC(MKK4) ≥ 30 = “+++”)	CCCS(=O)(=O)Nc1cccc(C(=O)c2ccc3[nH]c4ncc(Cl)cc4c3c2)c1F [Example 8, N-(3-(3-chloro-9H-pyrido[2,3-b]indole-6-carbonyl)-2-fluorophenyl)propane-1-sulfonamide]
+ + +	+++ (PoC(MKK7)/PoC(MKK4) ≥ 30 = “+++”)	+++ (PoC(BRaf)/PoC(MKK4) ≥ 30 = “+++”)	+++ (PoC(JNK1)/PoC(MKK4) ≥ 30 = “+++”)	CS(=O)(=O)Nc1c(F)ccc(C(=O)c2ccc3[nH]c4ncc(Cl)cc4c3c2)c1F [Example 9, N-(3-(3-chloro-9H-pyrido[2,3-b]indole-6-carbonyl)-2,6-difluorophenyl)methanesulfonamide]
